Data on 14 molecules can be found in patent US11162071B2, “Compositions and methods for generating hair cells by upregulating JAG-1” (Frequency Therapeutics, Inc., priority 2018, dated 2021).

Entries after “also recorded” stand apart in the source; their conditions may differ.

Assay [1] concerns cochlear Lgr5 progenitor cells. The experiment in a line: Expansion and enrichment of Lgr5-GFP cochlear progenitor cells in 3D culture (Lgr5+ assay). In kind it is cell-based, mouse. The source says: “Stem Cell Proliferation Assay” as used herein is an assay to determine the capacity for agent(s) to induce the creation of stem cells from a starting cell population. In an exemplary Stem Cell Proliferation Assay, the number of cells for an initial cell population is harvested from a Lgr5-GFP mouse such as a B6.129P2-Lgr5tm1(cre/ERT2)Cle/J mouse (also known as Lgr5-EGFP-IRES-creERT2 or Lgr5-GFP mouse, Jackson Lab Stock No: 008875) between the age of 0 to 5 days, by isolating the organ of Corti sensory epithelium and dissociating the epithelium into single cells. Approximately 5000 cells are entrapped in 40 μl of culture substrate (for example: Matrigel (Corning, Growth Factor Reduced)) and placed at the center of wells in a 24-well plate with 500 μl of an appropriate culture media, growth factors and agent being tested. Appropriate culture media and growth factors include Advanced DMEM/F12 with media Supplements (1×N2, 1× B27, 2 mM Glutamax, 10 mM HEPES, 1 mM N-acetylcysteine, and 100 U/ml Penicillin/100 μg/ml Streptomycin) and growth factors (50 ng/ml EGF, 50 ng/ml bFGF, and 50 ng/ml IGF-1) as well as the agent(s) being assessed are added into each well. Cells are cultured for 10 days in a standard cell culture incubator at 37° C. and 5% CO2, with media change every 2 days. The number of Lgr5+ cells is quantified by counting the number of cells identified as Lgr5+ in an In Vitro Lgr5 activity assay. The fraction of cells that are Lgr5+ is quantified by dividing the number of cells identified as Lgr5+ in a cell population by the total number of cells present in the cell population. The number of hair cells in a population may be measured by staining with hair cell marker (e.g., Myosin VIIa), or using an endogenous reporter of hair cell genes (e.g., Pou4f3-GFP, Atoh1-nGFP) and analyzing using flow cytometry. The fraction of cells that are hair cells is quantified by dividing the number of cells identified as hair cells in a cell population by the total number of cells present in the cell population. Gene and/or protein expression and/or activity is measured in this assay using methods known in the art such as by PCR, Nanostring, immunostaining, RNAseq, RNA hybridization, or Western blot analysis.
Neonatal Lgr5-EGFP-IRES-Cre-ER mice (The Jackson Laboratory, strain 8875) were used to analyze the effects of small molecules on cochlear stem cell expansion (see Barker et al., Nature 449, 1003-7 (2007). This strain allowed for visualization and quantification of EGFP cells.
All animal studies were conducted under an approved institutional protocol per National Institutes of Health guidelines. Using neonatal animals, cochleae were dissected and the organ of Corti (sensory epithelium) was separated from the stria vascularis (ion transport epithelium) and the modiolus (nerve tissue). Epithelia were then collected and treated with TrypLE for 15-20 minutes to obtain single cells. The cells were then filtered ([…]) and suspended in a Matrigel (Corning) dome for 3D culture seeded at 0.5 cochlea per well.
Expansion of Lgr5 Cells: Cells were cultured in a 3D system and bathed in a serum free 1:1 mixture of DMEM and F12, supplemented with Glutamax (GIBCO), N2, B27 (Invitrogen), EGF (50 ng/mL; Chemicon), bFGF (50 ng/mL; Chemicon), IGF-1 (50 ng/mL; Chemicon), and small molecules for seven days. Media was changed every other day. Treatments were run in triplicate or quadruplicate.
Lgr5 cells were quantified after 7-10 days. Cell colonies were dissociated into single cells using TrypLE. The cells were then stained with propidium iodide (PI) and analyzed using a flow cytometer to count Lgr5-EGFP cells. The percentage of viable Lgr5 cells was plotted against the concentration in GraphPad Prism.
Organ of Corti are dissected from Lgr5 GFP+ mice and dissociated as single cells as described above. Background media contains the same supplements and growth factors at the same concentrations as described above. […]

In assay [2] the test system is HDAC. The note with it: Table 6, cited from earlier work; for Class selectivity: HDAC class.
Assay [3] has as its system Jag-1. Briefly: Jag-1 upregulation/expression in cultured Lgr5+ cells (qPCR). Format: cell-based, mouse. The note with it: for Jag-1 upregulation: EFI background (FIG. 3). (In general: In qPCR the cycle at which signal appears reflects the starting amount.)
For assay [4], the system named is Jag-1. Briefly: Jag-1 expression in cultured Lgr5+ cells, Western blot band intensity normalized to GAPDH. In kind it is cell-based, mouse. Here is the method:
Calculated Jag-1 normalized to GAPDH using GelQuant software and bands quantified. Net volumes of Jag-1 bands were divided by net volume values of matched GAPDH bands. These values were normalized to vehicle in a background of growth factors including: 50 ng/mL EGF (E), 50 ng/mL bFGF (F), and 50 ng/mL IGF1 (I).
Cultures contained a background of growth factors including: 50 ng/mL EGF (E), 50 ng/mL bFGF (F), and 50 ng/mL IGF1 (I).
Calculated Jag-1 normalized to GAPDH using GelQuant software and bands quantified. Net volumes of Jag-1 bands were divided by net volume values of matched GAPDH bands. These values were normalized to vehicle.

Assay [5] has as its target GSK-3 alpha (Homo sapiens, UniProt P49840). To be noted: Table 3; cited from earlier work.
For assay [6], the target named is GSK-3 alpha (Homo sapiens, UniProt P49841). The note with it: GSK-3 alpha of Table 3; cited from earlier work.
GSK-3 alpha (Homo sapiens, UniProt P49841), sequence (P49841 whole entry): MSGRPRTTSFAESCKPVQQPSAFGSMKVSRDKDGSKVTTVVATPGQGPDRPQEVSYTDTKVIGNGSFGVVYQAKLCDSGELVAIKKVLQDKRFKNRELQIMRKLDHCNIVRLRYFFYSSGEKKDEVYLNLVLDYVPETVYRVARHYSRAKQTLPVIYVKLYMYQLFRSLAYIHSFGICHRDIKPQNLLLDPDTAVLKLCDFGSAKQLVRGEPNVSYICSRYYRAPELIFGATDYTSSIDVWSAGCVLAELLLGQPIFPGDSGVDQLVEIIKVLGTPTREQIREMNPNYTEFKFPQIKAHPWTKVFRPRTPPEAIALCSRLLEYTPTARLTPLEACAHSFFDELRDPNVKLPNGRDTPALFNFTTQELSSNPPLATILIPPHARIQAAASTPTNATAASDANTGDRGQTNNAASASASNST
Assay [7] has as its system HDAC. Briefly: HDAC inhibition in Lgr5 cell culture (FIG. 5). Format: cell-based. The note with it: with and without CHIR; EFI background (FIG. 5).
[8] abbreviates: 1,4-DPCA 370 nM with CHIR 4 μM + VPA 1 mM, versus CHIR+VPA, EFI background.
Where [9] appears, read: AS1842856 425 nM alone, EFI background.
The mark [10] stands for this setting: AS1842856 concentration series, EFI background (FIG. 7).
[11] abbreviates: control compounds CHIR99021 4 μM and Valproic Acid 1 mM, EFI background.
The mark [12] stands for this setting: SF1670 0.1 μM added to CHIR, versus CHIR, EFI background.
Where [13] appears, read: daprodustat 1.11 μM with CHIR 4 μM + VPA 1 mM, versus CHIR and CHIR+VPA, EFI background.
The mark [14] stands for this setting: VO-Ohpic 3 μM added to CHIR, versus CHIR, EFI background.

GSK-3 alpha (Homo sapiens, UniProt P49840), sequence (P49840 whole entry): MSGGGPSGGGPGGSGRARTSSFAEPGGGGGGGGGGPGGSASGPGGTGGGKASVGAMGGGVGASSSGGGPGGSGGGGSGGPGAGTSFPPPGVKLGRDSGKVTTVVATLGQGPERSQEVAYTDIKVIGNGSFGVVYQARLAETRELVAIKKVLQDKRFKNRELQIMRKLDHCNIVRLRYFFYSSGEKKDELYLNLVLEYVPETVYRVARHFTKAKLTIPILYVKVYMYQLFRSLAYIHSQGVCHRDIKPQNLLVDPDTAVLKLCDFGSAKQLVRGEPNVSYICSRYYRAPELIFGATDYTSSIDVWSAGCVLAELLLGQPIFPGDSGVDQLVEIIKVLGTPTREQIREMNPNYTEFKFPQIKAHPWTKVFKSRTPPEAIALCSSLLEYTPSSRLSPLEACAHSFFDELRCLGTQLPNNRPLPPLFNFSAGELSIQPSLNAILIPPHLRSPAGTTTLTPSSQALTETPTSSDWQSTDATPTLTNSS

As for `O=C(O)c1c[nH]c2c(ccc3cccnc32)c1=O` [1,4-DPCA, 4,4α-dihydro-4-oxo-1,10-phenanthroline-3-carboxylic acid], in assay [1] (setting [8]), the “Lgr5 GFP+ progenitor cell proliferation” value was “enhances Lgr5 GFP+ progenitor cell proliferation”; the “enrichment of Lgr5 GFP+ progenitor cells” value was “shows a trend for enrichment; also recorded: enhances Lgr5 GFP+ progenitor cell proliferation and enrichment”. Moreover, in assay [1] (agent alone, EFI background), the “enrichment of Lgr5 GFP+ cochlear progenitor cells” value was “does not enrich; also recorded: does not proliferate or enrich” and the “proliferation of Lgr5 GFP+ cochlear progenitor cells” value is on record as “does not proliferate”.

In the case of `C#CCC(CCCCCC)C(=O)O` (centres unmarked) [2-hexyl-4-pentynoic acid], in the assay with HDAC [2], the Class selectivity result was “Class I” and the “HDAC Potenc” value is 13 µM.

Turning to `CCn1cc(C(=O)O)c(=O)c2c(N)c(F)c(NC3CCCCC3)cc21` [AS1842856], the “expansion of cochlear Lgr5+ progenitor cells” value in assay [1] (setting [9]) is recorded as “elicits the expansion”. The “enrichment of Lgr5 cells (percentage)” value in assay [1] (AS1842856 425 nM combined with VPA 1 mM, EFI background) is on record as “enriched”. In addition, in assay [1] (setting [10]), the “LGR5+ cell growth (Lgr5 GFP(+) Cell Count)” value was “concentration-dependent effects; also recorded: enhances expansion of cochlear progenitor cells concentration-dependent manner”. Besides, in assay [1] (setting [10]), the “enrichment (Lgr5 GFP (%))” value is given as “concentration-dependent effects”. Also, in assay [1] (images, AS1842856 425 nM, EFI background), the Lgr5-GFP colony formation entry is given as “promotes Lgr5-GFP colony formation”. For the same molecule, the Jag-1 expression result is “upregulates Jag-1 expression” with Jag-1 [3] (qPCR, AS1842856 425 nM alone, EFI background) and “upregulates Jag-1 expression” with Jag-1 [4] (setting [9]).

Turning to `N#Cc1ccc2[nH]c(O)c(-c3ccc(CN4CCOCC4)cn3)c2c1` [AZD 1080], the GSK-3 alpha on GSK-3 alpha [5] is 6.9 nM.

Regarding `Cc1c[nH]c(-c2cnc(NCCNc3ccc(C#N)cn3)nc2-c2ccc(Cl)cc2Cl)n1` [CHIR99021], the “enrichment (percent LGR5-GFP(+) cell) of cochlear Lgr5 progenitor cells” value (“enrichment (percent LGR5-GFP(+) cell)” for short) in assay [1] (CHIR alone, EFI background) is listed as “elicits”. Moreover, the “expansion (LGR5-GFP(+) cell count) of cochlear Lgr5 progenitor cells” value (from here on “expansion (LGR5-GFP(+) cell count)”) in assay [1] (CHIR alone, background 50 ng/mL EGF, bFGF, IGF1 (EFI)) is “elicits the expansion”. In addition, the “enrichment of Lgr5 GFP+ cochlear progenitor cells” value in assay [1] (setting [11]) is reported as “enrich”. Also, in the assay on Jag-1 [3] (agent alone), the Jag-1 upregulation entry is listed as “upregulated Jag-1”.

For `O=C(O)CNC(=O)c1nc(Cl)c2ccccc2c1O` [FG-2216, N-[(1-chloro-4-hydroxy-3-isoquinolinyl)carbonyl]-glycine], the “Lgr5 GFP+ progenitor cell proliferation” value in assay [1] (FG-2216 30 μM with CHIR 4 μM + VPA 1 mM, versus CHIR and CHIR+VPA, EFI background) is listed as “proliferates Lgr5 GFP+ progenitor cell similarly”; in assay [1] (FG-2216 30 μM with CHIR 4 μM, versus CHIR and CHIR+VPA 1 mM, EFI background), “enhances Lgr5 GFP+ progenitor cell proliferation”. In addition, the “enrichment of Lgr5 GFP+ progenitor cells” value is reported as “shows a trend for enhanced enrichment” in assay [1] (FG-2216 30 μM with CHIR 4 μM + VPA 1 mM, versus CHIR+VPA, EFI background) and “enhances enrichment; also recorded: enriches Lgr5 GFP+ progenitor cell enrichment” in assay [1] (FG-2216 30 μM with CHIR 4 μM, versus CHIR+VPA 1 mM, EFI background). Moreover, the “enrichment of Lgr5 GFP+ cochlear progenitor cells” value in assay [1] (agent alone, EFI background) is “does not enrich; also recorded: does not proliferate or enrich”. Also, the “proliferation of Lgr5 GFP+ cochlear progenitor cells” value in assay [1] (agent alone, EFI background) was “does not proliferate”.

In the case of `Cc1ccc(C(=O)Nc2c[nH]nc2C(=O)NCCCOC(C)C)cn1` [GSK XXII], the “Lgr5+ Assay” value in assay [1] (concentration range in Lgr5+ assay, Table 3) is 0.2 to 1 µM. Further, at GSK-3 alpha [5], the GSK-3 alpha is on record as 2.3 nM.

With `O=C1NC(=O)C(c2cnc3ccccn23)=C1c1cn2c3c(cc(F)cc13)CN(C(=O)N1CCCCC1)CC2` [LY2090314, 3-(9-fluoro-2-(piperidine-1-carbonyl)-1,2,3,4-tetrahydro-[1,4]diazepino[6,7,1-hi]indol-7-yl)-4-(imidazo[1,2-a]pyridin-3-yl)-1H-pyrrole-2,5-dione], the GSK-3 alpha at GSK-3 alpha [5] was 2.1 nM; on GSK-3 alpha [6] it was 0.9 nM.

With `CC(C)(C)C(=O)Nc1ccc2c(c1)C(=O)C(=O)c1ccccc1-2` [SF1670], in assay [1] (setting [12]), the “enrichment (percent LGR5-GFP(+) cell)” value is given as “further enhanced” and the “expansion (LGR5-GFP(+) cell count)” value is reported as “further enhanced”.

With `CCCC(CCC)C(=O)[O-].[Na+]` [Sodium Valproate], in assay [1] (setting [11]), the “enrichment of Lgr5 GFP+ cochlear progenitor cells” value is “enrich”. In addition, the Jag-1 upregulation result in the assay with Jag-1 [4] (AS1842856 425 nM plus VPA 1 mM, versus AS1842856 alone) was “enhanced the effects of 425 nM AS1842856 on Jag-1 upregulation”. Besides, the HDAC inhibition result with HDAC [7] is recorded as “concentration dependent increase in HDAC inhibition”. In addition, in the assay with HDAC [2], the Class selectivity result is “Class I” and the “HDAC Potenc” value is 39 to 161 µM.

For the molecule `O=C(O)CNC(=O)C1C(=O)N(C2CCCCC2)C(=O)N(C2CCCCC2)C1=O` [daprodustat, N-[(1,3-dicyclohexylhexahydro-2,4,6-trioxo-5-pyrimidinyl)carbonyl]-glycine], in assay [1] (agent alone, EFI background), the “enrichment of Lgr5 GFP+ cochlear progenitor cells” value is on record as “does not enrich; also recorded: does not proliferate or enrich” and the “proliferation of Lgr5 GFP+ cochlear progenitor cells” value was “does not proliferate”. Also, in assay [1] (setting [13]), the “Lgr5 GFP+ progenitor cell proliferation” value is recorded as “does not enhance Lgr5 GFP+ progenitor cell proliferation” and the “enrichment of Lgr5 GFP+ progenitor cells” value is reported as “enhances enrichment”.

As to “Jag-1 peptide: soluble Jag-1 peptide (residues 188-204), CDDYYYGFGCNKFCRPR (SEQ ID NO:1) (listed as Homo sapiens)”, the “Lgr5+ cell proliferation” value in assay [1] (0.25 μM Jag-1 peptide added to 4 μM CHIR, EFI background) is “able to recapitulate enhancement of Lgr5+ cell proliferation; also recorded: enhances CHIR induced Lgr5+ cell proliferation”.

With Na phenylbutyrate, in the assay with HDAC [2], the Class selectivity result is recorded as “Class I >” and the “HDAC Potenc” value is 9 to 16 µM.

For VO-Ohpic, in assay [1] (setting [14]), the “enrichment (percent LGR5-GFP(+) cell)” value is on record as “enhanced” and the “expansion (LGR5-GFP(+) cell count)” value was “enhanced”. Besides, the Jag-1 upregulation entry in the assay with Jag-1 [3] (VO-Ohpic 3 μM added to CHIR, versus CHIR) is “enhanced; also recorded: synergistically enhances Jag-1 upregulation”. In the assay with Jag-1 [3] (agent alone, listed as VO), the Jag-1 upregulation result is “does not upregulate Jag-1”. Moreover, the HDAC inhibition result with HDAC [7] is listed as “does not elicit a detectable increase in HDAC inhibition”.
